Active and inactive are the calls of the source. The calls are words filed in the database; no cut-off is given here. Some results are limits rather than exact numbers.

Experiment [1] can be described thus: Disregulation of inflammation related gene expression in human U87 cells assessed as change in IL6 mRNA level at 0.5 uM after 16 hrs by microarray analysis relative to untreated control. It counts as functional, cell-based. The note with it: U-87MG ATCC.
Experiment [2] in a line: Disregulation of DNA-damage and oxidative stress responsive gene expression in human U87 cells assessed as change in GADD45A mRNA level at 0.5 uM after 16 hrs by microarray analysis relative to untreated control. Type of experiment: functional, U-87MG ATCC.
Experiment [3] is described as follows: Disregulation of endoplasmic reticulum stress responsive gene expression in human U87 cells assessed as change in ATF4 mRNA level at 0.5 uM after 16 hrs by microarray analysis relative to untreated control. It counts as functional, cell-based. The note with it: U-87MG ATCC.
Experiment [4] is described as follows: Disregulation of cell development related gene expression in human U87 cells assessed as change in PRPX1 mRNA level at 0.5 uM after 16 hrs by microarray analysis relative to untreated control. Type of experiment: functional, cell-based. The note with it: U-87MG ATCC.
Experiment [5] in a line: Antiproliferative activity against human U87 cells expressing GFP after 3 days by flash-cytometry. It counts as functional, U-87MG ATCC. The note with it: U-87 MG, 72 h, read-out: ED50 (the source's name).
Experiment [6] is described as follows: Disregulation of cell cycle related gene expression in human U87 cells assessed as change in CDCA7 mRNA level at 0.5 uM after 16 hrs by microarray analysis relative to untreated control. The settings on record: U-87MG ATCC. It counts as functional, cell-based.
Experiment [7] in a line: Disregulation of endoplasmic reticulum stress responsive gene expression in human U87 cells assessed as change in ATF3 mRNA level at 0.5 uM after 16 hrs by microarray analysis relative to untreated control. The note with it: U-87MG ATCC. Type of experiment: functional, cell-based.
Experiment [8] is described as follows: Disregulation of cell cycle related gene expression in human U87 cells assessed as change in cyclin D mRNA level at 0.5 uM after 16 hrs by microarray analysis relative to untreated control. It counts as functional, cell-based. The note with it: U-87MG ATCC.
Experiment [9] in a line: Disregulation of cell cycle related gene expression in human U87 cells assessed as change in EDN1 mRNA level at 0.5 uM after 3 hrs by microarray analysis relative to untreated control. The note with it: U-87MG ATCC. It counts as functional, cell-based.
Experiment [10] can be described thus: Disregulation of inflammation related gene expression in human U87 cells assessed as change in IL1F5 mRNA level at 0.5 uM after 16 hrs by microarray analysis relative to untreated control. The note with it: U-87MG ATCC. Type of experiment: functional, cell-based.

Consider `Cc1ccc(CN(Cc2ccc(O)c3ncccc23)Cc2ccc(O)c3ncccc23)cc1`, for which the fold change (FC) in experiment [1], in [2], in experiment [3], in [4], in experiment [6] and in experiment [8] was 3 throughout. The fold change (FC) in experiment [9] was > 1.4; in experiment [10], 3. Also, the EC50 in experiment [5] was < 200 nM. The outcome in [7] was Active.

Values taken from ChEMBL document CHEMBL1153753, “Structure-activity relationships and mechanism of action of antitumor bis 8-hydroxyquinoline substituted benzylamines” (Eur J Med Chem, 2010).
